Source: patent US20220288075A1, “METHOD AND COMPOSITION FOR TREATING PAIN” (ACADEMIA SINICA, priority 2019, published 2022)

Key:
pERK = pERK expression of L4 DRG neurons after intramuscular LPC16:0 injection; type: in vivo, mice
Protocol: (§1) The chronic pain model was based on the repeated acid injection model protocol by Sluka et al.^44, and LPC16:0 was used for pain induction to replace acidic saline injection. Mice received in the left gastrocnemius muscle two intramuscular injections (1 day apart) of 10 μL neutral saline solution (pH 7.4; buffered with HEPES) containing vehicle (0.96% ethanol) or LPC16:0 (4.8 nmol; Avanti Polar Lipids Inc)^30. In the experiment of pharmacological inhibition of ASIC3, APETx2 (50 pmole; Alomone, Israel), a selective ASIC3 antagonist, was co-injected with LPC16:0.
Immunofluorescence staining. Animals were euthanized with urethane ([…], i.p.) and perfused with 4% paraformaldehyde (PFA) at P0. L4 dorsal root ganglia (DRG) were extracted and immediately post-fixed in 4% PFA for 60 min, and then replaced with 30% sucrose overnight. DRG were embedded in OCT compound and sectioned (12 μm) with a Leica cryostat. […] Images were acquired and quantified under a Carl Zeiss fluorescence microscope with a 10× objective lens. All images from the same experiment were acquired with the same settings, including fluorescence intensity, acquisition time, and image resolution. The immunoreactivity of pERK and the overlap between pERK and neuron markers (SP, CGRP, IB4 or N52) were assessed using Fiji (ImageJ, NIH) software, with the experimenter blinded to treatment and/or genotype. […]

WT mice = assay: LPC16:0 / lipid injection in wild-type mice, mechanical hypersensitivity by von Frey test; type: in vivo; settings: for long-lasting hyperalgesia / priming-like effect after repeated intramuscular injection: two i.m. injections, 4.8 nmol, 10C
[1] = system: mice with repeated LPC16:0 injection; assay: Repeated LPC16:0 injection model, drug effects by von Frey test; type: in vivo; settings: for analgesic effect in repeated LPC16:0 injection model (von Frey): intraperitoneal administration, FIG. 10E
Protocol: as §1
(§2) Animals were placed on an elevated mesh platform, and a 0.2-mN von Frey filament was applied to the plantar surface of both hind paws. A positive response was defined as lifting, shaking, guarding, or licking paws when the stimulus was applied. For each paw, the filament was applied 5 times at 30-sec intervals.
Analgesic drugs: Pregabalin (0.3, 1, 3 or 10 mg/kg bodyweight, i.p.; Toronto Research Chemicals), morphine (0.3, 1, 3 or 10 mg/kg bodyweight, i.p.), diclofenac (1, 3 or 10 mg/kg bodyweight, i.p.; Sigma-Aldrich) or vehicle (0.9% saline) was administered, and the effect of each drug was evaluated by testing 6 mice. Sensory testing was carried out at 30 min and 1, 3 and 24 hours after injection of vehicle or drugs, with the experimenter blinded to the dose of test drugs. […] The 3Rs stand for Replace, Reduce, Refine and represent a responsible approach to animal testing. The goal is to replace animal experiments whenever possible. In addition, the aim is to keep the number of animal experiments as low as possible and to only use the necessary number of animals. Lastly, it is vital to ensure that the distress inflicted upon the animals is as low as possible. Therefore, all the pharmacological studies were conducted on post-RISS day 1 and day 4 (3 days apart, within 1 week after RISS). Mice of post-stress day 1 and day 4 were assigned randomly but equally to each tested dosage for counterbalance. During testing, the experimenter was blind to the individual treatment assignments.
Intrathecal injection was conducted through transcutaneous injection with a 30-gauge needle at the L5-6 dorsal spinal process under anesthesia of isoflurane (1.5%).

RISS mice = assay: RISS (repeated and intermittent sound stress) model, sensory testing (von Frey, muscle withdrawal threshold, Hargreaves); type: in vivo; settings: i.p. injection, post-RISS day 1 and 4; FIG. 1G
Source text: Sound stressors were applied as described^14, 43 with modification. Mice were placed (3 per cage) in a 20×30×15 cm bedding cage, which was kept 25 cm below a speaker, inside a 40×50×35 cm sound-insulated box. A speaker emitted pure tones at 5 frequencies (5, 11, 13, 15 and 19 kHz) with random amplitudes varied over time for each frequency (0, 20, 60, 90, and 100 dB sound). Each tone stimulus lasted for 5 or 10 sec in random order, and mice were stimulated continuously without interval. The sound stressors continued for 30 min as a set. In the original SS (sound stress) protocol, a set of 30-min stimuli was given once a day on days 1, 3, and 4 (FIG. 1A)^14. The RISS model intensified the stress protocol by increasing the stimulus frequency: a set of sound stimulus was repeated every 3 hours for 6 times overnight (from 16:00 to 10:00), followed by resting silence for 6 hours (from 10:00 to 16:00). The procedure was repeated on days 1, 3, and 4 as for the SS protocol. The control groups were placed in similar chambers for 4 days without stress exposure. Both groups of mice had access to food and water freely during the stress period. After the stimulus procedure, mice were returned to their original home cages in the animal care facility. In both the SS and RISS protocols, the day after completing the stress stimuli is called P0; the post-stress day 1, P1; and so on. In the experimental design of the […] single-day stimuli of intermittent SS (SISS), the day after SISS is called P′0; the post-stress day 1, P′1; and so on.
as §2
Mice were placed individually in Acrylic cubicles mounted on a glass surface maintained at 30° C. The test was performed after acclimatization. The thermal stimulus of the radiant heat was then applied to the plantar surface of each hind paw. Each mouse was tested in three sequential trials with an interval of 2-3 min. The assay cutoff was set at 30 sec to prevent tissue damage. Paw withdrawal latencies were calculated as the mean of three measures.
Muscle withdrawal thresholds were evaluated as described^46. […]
Analgesic drugs: Pregabalin (0.3, 1, 3 or 10 mg/kg bodyweight, i.p.; Toronto Research Chemicals), morphine (0.3, 1, 3 or 10 mg/kg bodyweight, i.p.), diclofenac (1, 3 or 10 mg/kg bodyweight, i.p.; Sigma-Aldrich) or vehicle (0.9% saline) was administered, and the effect of each drug was evaluated by testing 6 mice. […]

## CCCCCCCCCCCCCCCC(=O)OC[C@@H](O)COP(=O)([O-])OCC[N+](C)(C)C [LPC16:0, lysophosphatidylcholine (LPC) 16:0]
pERK; i.m. injection, FIG. 10A, 10B
  pERK expression in L4 DRG neurons after LPC injection vs vehicle: increased
WT mice; 4.8, 1.6 and 0.48 nmol i.m., FIG. 3I
  hyperalgesic responses after intramuscular injection, dose dependence: dose-dependently evoked hyperalgesic responses
WT mice; single i.m. injection, FIG. 3J
  hyperalgesia after single intramuscular injection: induced transient bilateral hyperalgesia
WT mice; FIG. 3J
  long-lasting hyperalgesia / priming-like effect after repeated intramuscular injection: induced long-lasting hyperalgesic changes
WT mice; two intraplantar injections, 4.8 nmole, FIG. 3J right
  hyperalgesia after repeated intraplantar injection: only induced transient hyperalgesia

## CCCCCCCCCCCCCCCCCC(=O)OC[C@@H](O)COP(=O)([O-])OCC[N+](C)(C)C [LPC18:0]
WT mice; FIG. 3J
  long-lasting hyperalgesia / priming-like effect after repeated intramuscular injection: not observed

## CCCCCCCCCCCCC/C=C/[C@@H](O)[C@H](COP(=O)([O-])OCC[N+](C)(C)C)NC(=O)CCCCCCCCCCCCCCCCC [SM(d18:1/18:0)]
WT mice; FIG. 3J
  long-lasting hyperalgesia / priming-like effect after repeated intramuscular injection: not observed

## N#CC(=C(/N)Sc1ccccc1N)/C(C#N)=C(\N)Sc1ccccc1N [U0126]
[1]; mouse, in vivo
  LPC16:0-induced acute hyperalgesia: prevented
  chronic hyperalgesia induced by the second LPC16:0 injection: impeded the development of chronic hyperalgesia

## O=C(O)Cc1ccccc1Nc1c(Cl)cccc1Cl [diclofenac]
[1]
  analgesic effect in repeated LPC16:0 injection model (von Frey): not
RISS mice
  analgesic effect on RISS-induced hyperalgesia (mechanical, muscle, thermal): no significant analgesic effects

## CN1CC[C@]23c4c5ccc(O)c4O[C@H]2[C@@H](O)C=C[C@H]3[C@H]1C5 [morphine]
[1]
  analgesic effect in repeated LPC16:0 injection model (von Frey): not
RISS mice
  analgesic effect on RISS-induced hyperalgesia (mechanical, muscle, thermal): no significant analgesic effects

## CC(C)C[C@H](CN)CC(=O)O [pregabalin]
[1]
  analgesic effect in repeated LPC16:0 injection model (von Frey): responded
RISS mice
  analgesic effect on RISS-induced hyperalgesia (mechanical, muscle, thermal): dose-dependently reversed hyperalgesia

## APETx2
[1]; APETx2 50 pmole co-injected i.m. with LPC16:0, FIG. 3K left
  chronic hypersensitivity after repeated LPC16:0 injection: significantly reduced
[1]; APETx2 co-injected i.m. with LPC16:0, vs vehicle, FIG. 3K left
  transient (acute) hyperalgesia after LPC16:0 injection: transient hyperalgesia was observed
pERK; APETx2 co-injected with LPC16:0, FIG. 10F, 10G
  LPC16:0 injection-induced pERK expression in DRG neurons: reduced
